Test results reported in patent US11951148B1 (Fleurir ABX LLC, priority 2014, dated 2024).

Tests used:
Type in all cases: cell-based
K. pneumoniae 170S [1] = test: Synergy checkerboard assay of antibacterial combinations; conditions: in combination with A-24
Description: (§1) For the described examples, reference and clinical isolates were generally obtained from known sources, including American Type Culture Collection (Manasas, VA.) or International Health Management Associates, Inc. (Schaumberg, IL). Bacteria were cultured in suitable broth, concentrated by centrifugation, and cryopreserved in the same medium, generally containing 20% glycerol by holding at −80° C. Every two weeks a small amount of frozen culture was removed aseptically and streaked on fresh agar plates to act as a working inoculum. Following overnight growth at about 37° C., the plates were wrapped in parafilm and held at about 4° C. Bacteria (4-5 colonies) were then aseptically transferred into broth growth medium for assays as needed.
(§2) Minimal inhibitory concentration (MIC) assays were performed in a manner as described for the CLSI broth microdilution assay guideline (see, Clinical Laboratory Standards Institute, 2009, Methods for Dilution Antimicrobial Susceptibility Tests for Bacteria That Grow Aerobically; Approved Standard, Eighth Edition, M07-A8, Vol. 29, No. 2). Antibiotics were dissolved, and then serially diluted in suitable broth across the assay plate in the classical 2-fold geometric format. Antibiotic concentrations in each well at this point were double what the final assay concentration would be. […] Following incubation as per the guideline, results were recorded as growth or no growth, and the lowest concentration of antibiotic where no growth was observed was declared the MIC.
(§3) To assay for synergy of antibacterial combinations, a recognized synergy checkerboard assay, adapted from the CLSI guideline microdilution assay, was utilized (see Eliopoulos, G. M., and Moellering, R. C, Jr., 1996. Antimicrobial Combinations, pg. 330-396. In: Lorian, V. (Ed.), Antibiotics in Laboratory Medicine, 4th Ed., Williams & Wilkins; Baltimore, MD). […] The fractional inhibitory concentration, which provides the mathematical definition (as shown below) is calculated to determine whether antibacterial synergy was observed. […]

K. pneumoniae 1161486 [2] = test: as above; conditions: in combination with A-24
Description: as §1, §2, §3

E. coli 7623 [3] = test: as above; conditions: in combination with A-24
Description: as §1, §2, §3

K. pneumoniae 170S [4] = test: MIC, CLSI broth microdilution assay; conditions: agent alone
Description: as §1
(§4) Minimal inhibitory concentration (MIC) assays were performed in a manner as described for the CLSI broth microdilution assay guideline (see, Clinical Laboratory Standards Institute, 2009, Methods for Dilution Antimicrobial Susceptibility Tests for Bacteria That Grow Aerobically; Approved Standard, Eighth Edition, M07-A8, Vol. 29, No. 2). Antibiotics were dissolved, and then serially diluted in suitable broth across the assay plate in the classical 2-fold geometric format. Antibiotic concentrations in each well at this point were double what the final assay concentration would be. Bacterial inocula were prepared by swabbing several colonies from a fresh agar plate, and resuspending the bacteria to a density that was the 0.5 McFarland turbidity standard (generally close or equivalent to 1×10^8 CFU/mL). The bacterial inocula were diluted in the broth to about 1×10^6 CFU/mL, and a suitable amount, e.g., 100 μL was overlayered onto the wells containing the diluted antibiotics. Following incubation as per the guideline, results were recorded as growth or no growth, and the lowest concentration of antibiotic where no growth was observed was declared the MIC.

K. pneumoniae 1161486 [5] = test: MIC, CLSI broth microdilution assay; conditions: agent alone
Description: as §1, §4

A. baumannii 160S = test: MIC, CLSI broth microdilution assay; conditions: agent alone
Description: as §1, §4

E. coli ATCC 25922 = test: MIC, CLSI broth microdilution assay; conditions: agent alone
Description: as §1, §4

E. coli 7623 [6] = test: MIC, CLSI broth microdilution assay; conditions: agent alone
Description: as §1, §4

pristinamycin
MIC of Pristinamycin in Combo (K. pneumoniae 170S [1]): 2 µg/mL
MIC of Pristinamycin in Combo (K. pneumoniae 1161486 [2]): ≤2 µg/mL
MIC of Pristinamycin in Combo (E. coli 7623 [3]): 32 µg/mL
MIC (K. pneumoniae 170S [4]): >128 µg/mL
MIC (K. pneumoniae 1161486 [5]): >128 µg/mL
MIC (A. baumannii 160S): 128 µg/mL
MIC (E. coli ATCC 25922): 64 µg/mL
MIC (E. coli 7623 [6]): 64 µg/mL
